According to patent US11542530B2, “Method for increasing efficiency of homologous recombination-based gene editing in plant” (INDUSTRY-ACADEMIC COOPERATION FOUNDATION GYEONGSANG …, priority 2018, dated 2023):
Read-outs that look alike come from different tables or passages of the source.

Assays:
[1] = test system: RAD51; assay: HDR efficiency after treatment with RS-1; type: cell-based; conditions: RS-1 as activator of RAD51
Description: As a method which can be used either simultaneously or separately from the approaching method of above VI, there is a method of activating HDR pathway-regulating proteins by using chemical factors.

[2] = test system: recombinase RAD51; conditions: mouse, reported; cited from earlier work
[3] = test system: ligase IV; conditions: reported, background art; cited from earlier work
[4] = test system: mammalian ligase IV; conditions: mouse, reported; cited from earlier work
[5] = test system: ligase IV of the NHEJ pathway; assay: HDR efficiency after treatment with NHEJ inhibitor SCR7 pyrazine, tomato cotyledons with pTC217 / pTC147; type: cell-based; conditions: for Editing efficiency: total purple spots (pTC217)/total purple spots (pTC147)×100 / Editing efficiency / Purple spot/cotyledon (Avg.) / Purple spots (Total): 21 dpi
Description: In the present invention, a method of increasing the HDR efficiency according to blocking of the NHEJ pathway by using Scr7 pyrazine chemical compound, which is an inhibitor of ligase IV of the NHEJ pathway in competitive relationship with the HDR pathway, was employed. As a result, when Scr7 pyrazine is used, the HDR efficiency had increased by 4 times compared to the comparative control group.
In order to measure the HDR frequency of Cas9, 21 days after the Agrobacterium infection, purple spots were counted from the cotyledon which has been infected with pTC217 (BeYDV with Cas9/gRNA1b) virus replicon and also from the cotyledon which has been transformed with pTC147 (35S:ANT1 T-DNA) control vector. By dividing the total number of purple spots that has been counted from callus generated with pTC217 by the total number of purple spots that has been counted from callus generated with pTC147, the HDR frequency rate was estimated.
DNA repair is mostly achieved by NHEJ pathway, and HDR-based repair occurs very limitedly. According to previous studies made on mammals, it was reported that HDR efficiency can be increased by blocking the NHEJ pathway. It is reported that SCR7 pyrazine, which is an inhibitor of mammalian ligase IV, can increase HDR as much as about 19 times in mouse, or 5 times in human cell line. […] However, no report has been made regarding the influence of SCR7 pyrazine on plant HDR. Accordingly, the effect of a treatment with different cultivation period (0, 1, 2 or 3 days) or different SCR7 pyrazine concentration (0, 1, 10 μM) was examined by the inventors of the present invention by using Cas9 structure pTC217 (BeYDV having Cas9/gRNA1b).
[Editing efficiency: total purple spots (pTC217)/total purple spots (pTC147)×100]

[6] = test system: mammalian ligase IV; conditions: human cell line, reported; cited from earlier work
[7] = Table 13 (Change 1), pTC147 (T-DNA), SCR7 1 μM, 1 day, cv. Hong-Kwang, DD→16L/8D, 28° C.
[8] = Table 13 (Change 1), pTC147 (T-DNA), SCR7 1 μM, 2 days, cv. Hong-Kwang, DD→16L/8D, 28° C.
[9] = Table 13 (Change 1), pTC147 (T-DNA), SCR7 1 μM, 3 days, cv. Hong-Kwang, DD→16L/8D, 28° C.
[10] = Table 13 (Change 1), pTC147 (T-DNA), SCR7 10 μM, 1 day, cv. Hong-Kwang, DD→16L/8D, 28° C.
[11] = Table 13 (Change 1), pTC147 (T-DNA), SCR7 10 μM, 2 days, cv. Hong-Kwang, DD→16L/8D, 28° C.
[12] = Table 13 (Change 1), pTC147 (T-DNA), SCR7 10 μM, 3 days, cv. Hong-Kwang, DD→16L/8D, 28° C.
[13] = Table 13 (Change 1), pTC217, SCR7 1 μM, 1 day, cv. Hong-Kwang, DD→16L/8D, 28° C.
[14] = Table 13 (Change 1), pTC217, SCR7 1 μM, 2 days, cv. Hong-Kwang, DD→16L/8D, 28° C.
[15] = Table 13 (Change 1), pTC217, SCR7 1 μM, 3 days, cv. Hong-Kwang, DD→16L/8D, 28° C.
[16] = Table 13 (Change 1), pTC217, SCR7 10 μM, 1 day, cv. Hong-Kwang, DD→16L/8D, 28° C.
[17] = Table 13 (Change 1), pTC217, SCR7 10 μM, 2 days, cv. Hong-Kwang, DD→16L/8D, 28° C.
[18] = Table 13 (Change 1), pTC217, SCR7 10 μM, 3 days, cv. Hong-Kwang, DD→16L/8D, 28° C.
[19] = Table 14 (Change 2), pTC147 (T-DNA), SCR7 1 μM, 1 day, cv. Hong-Kwang, DD→16L/8D, 28° C.
[20] = Table 14 (Change 2), pTC147 (T-DNA), SCR7 1 μM, 2 days, cv. Hong-Kwang, DD→16L/8D, 28° C.
[21] = Table 14 (Change 2), pTC147 (T-DNA), SCR7 1 μM, 3 days, cv. Hong-Kwang, DD→16L/8D, 28° C.
[22] = Table 14 (Change 2), pTC147 (T-DNA), SCR7 10 μM, 1 day, cv. Hong-Kwang, DD→16L/8D, 28° C.
[23] = Table 14 (Change 2), pTC147 (T-DNA), SCR7 10 μM, 2 days, cv. Hong-Kwang, DD→16L/8D, 28° C.
[24] = Table 14 (Change 2), pTC147 (T-DNA), SCR7 10 μM, 3 days, cv. Hong-Kwang, DD→16L/8D, 28° C.
[25] = Table 14 (Change 2), pTC217, SCR7 1 μM, 1 day, cv. Hong-Kwang, DD→16L/8D, 28° C.
[26] = Table 14 (Change 2), pTC217, SCR7 1 μM, 2 days, cv. Hong-Kwang, DD→16L/8D, 28° C.
[27] = Table 14 (Change 2), pTC217, SCR7 1 μM, 3 days, cv. Hong-Kwang, DD→16L/8D, 28° C.
[28] = Table 14 (Change 2), pTC217, SCR7 10 μM, 1 day, cv. Hong-Kwang, DD→16L/8D, 28° C.
[29] = Table 14 (Change 2), pTC217, SCR7 10 μM, 2 days, cv. Hong-Kwang, DD→16L/8D, 28° C.
[30] = Table 14 (Change 2), pTC217, SCR7 10 μM, 3 days, cv. Hong-Kwang, DD→16L/8D, 28° C.
[31] = pTC147 (T-DNA), SCR7 1 μM, cv. Tom-Heart, 16L/8D, 25° C.
[32] = pTC147 (T-DNA), SCR7 10 μM, cv. Tom-Heart, 16L/8D, 25° C.
[33] = pTC217, SCR7 1 μM, cv. Tom-Heart, 16L/8D, 25° C.
[34] = pTC217, SCR7 10 μM, cv. Tom-Heart, 16L/8D, 25° C.

O=C(Nc1ccc(Br)cc1)c1ccc(Br)c(S(=O)(=O)NCc2ccccc2)c1 [RS-1, RAD51-stimulatory compound 1]
increase of HDR efficiency [1]: approximately 3 times | effect on HDR efficiency [2]: can increase the HDR efficiency in mouse

O=c1[nH]c(=S)[nH]c2nc(-c3ccccc3)c(-c3ccccc3)nc12 [SCR7, 2,3-dihydro-6,7-diphenyl-2-thioxo-4 (1H)-pteridinone]
increase of HDR [3]: 2 to 19 times | increase of HDR [4]: about 19 times | Editing efficiency: total purple spots (pTC217)/total purple spots (pTC147)×100 ([5]; SCR7 1 μM, cv. Tom-Heart, 16L/8D, 25° C.): 4.5 | Editing efficiency: total purple spots (pTC217)/total purple spots (pTC147)×100 ([5]; SCR7 10 μM, cv. Tom-Heart, 16L/8D, 25° C.): 11.9 | Editing efficiency ([5]; Table 13 (Change 1), SCR7 1 μM, 1 day, cv. Hong-Kwang, DD→16L/8D, 28° C.): 1.89 | Editing efficiency ([5]; Table 13 (Change 1), SCR7 1 μM, 2 days, cv. Hong-Kwang, DD→16L/8D, 28° C.): 3.39 | Editing efficiency ([5]; Table 13 (Change 1), SCR7 1 μM, 3 days, cv. Hong-Kwang, DD→16L/8D, 28° C.): 7.74 | Editing efficiency ([5]; Table 13 (Change 1), SCR7 10 μM, 1 day, cv. Hong-Kwang, DD→16L/8D, 28° C.): 3.41 | Editing efficiency ([5]; Table 13 (Change 1), SCR7 10 μM, 2 days, cv. Hong-Kwang, DD→16L/8D, 28° C.): 9.27 | Editing efficiency ([5]; Table 13 (Change 1), SCR7 10 μM, 3 days, cv. Hong-Kwang, DD→16L/8D, 28° C.): 22.93 | Purple spot/cotyledon (Avg.) [5, 7]: 28.7 | Purple spots (Total) [5, 7]: 1005 | Purple spot/cotyledon (Avg.) [5, 8]: 26.9 | Purple spots (Total) [5, 8]: 942 | Purple spot/cotyledon (Avg.) [5, 9]: 23.2 | Purple spots (Total) [5, 9]: 813 | Purple spot/cotyledon (Avg.) [5, 10]: 20.1 | Purple spots (Total) [5, 10]: 703 | Purple spot/cotyledon (Avg.) [5, 11]: 18.8 | Purple spots (Total) [5, 11]: 658 | Purple spot/cotyledon (Avg.) [5, 12]: 14.2 | Purple spots (Total) [5, 12]: 497 | Purple spot/cotyledon (Avg.) [5, 13]: 0.55 | Purple spots (Total) [5, 13]: 19 | Purple spot/cotyledon (Avg.) [5, 14]: 0.93 | Purple spots (Total) [5, 14]: 32 | Purple spot/cotyledon (Avg.) [5, 15]: 1.8 | Purple spots (Total) [5, 15]: 63 | Purple spot/cotyledon (Avg.) [5, 16]: 0.68 | Purple spots (Total) [5, 16]: 24 | Purple spot/cotyledon (Avg.) [5, 17]: 1.75 | Purple spots (Total) [5, 17]: 61 | Purple spot/cotyledon (Avg.) [5, 18]: 3.26 | Purple spots (Total) [5, 18]: 114 | Editing efficiency ([5]; Table 14 (Change 2), SCR7 1 μM, 1 day, cv. Hong-Kwang, DD→16L/8D, 28° C.): 7.45 | Editing efficiency ([5]; Table 14 (Change 2), SCR7 1 μM, 2 days, cv. Hong-Kwang, DD→16L/8D, 28° C.): 7.17 | Editing efficiency ([5]; Table 14 (Change 2), SCR7 1 μM, 3 days, cv. Hong-Kwang, DD→16L/8D, 28° C.): 7.54 | Editing efficiency ([5]; Table 14 (Change 2), SCR7 10 μM, 1 day, cv. Hong-Kwang, DD→16L/8D, 28° C.): 11.34 | Editing efficiency ([5]; Table 14 (Change 2), SCR7 10 μM, 2 days, cv. Hong-Kwang, DD→16L/8D, 28° C.): 13.52 | Editing efficiency ([5]; Table 14 (Change 2), SCR7 10 μM, 3 days, cv. Hong-Kwang, DD→16L/8D, 28° C.): 15.15 | Purple spot/cotyledon (Avg.) [5, 19]: 26.0 | Purple spots (Total) [5, 19]: 912 | Purple spot/cotyledon (Avg.) [5, 20]: 17.9 | Purple spots (Total) [5, 20]: 627 | Purple spot/cotyledon (Avg.) [5, 21]: 18.9 | Purple spots (Total) [5, 21]: 663 | Purple spot/cotyledon (Avg.) [5, 22]: 22.9 | Purple spots (Total) [5, 22]: 802 | Purple spot/cotyledon (Avg.) [5, 23]: 21.5 | Purple spots (Total) [5, 23]: 754 | Purple spot/cotyledon (Avg.) [5, 24]: 18.8 | Purple spots (Total) [5, 24]: 660 | Purple spot/cotyledon (Avg.) [5, 25]: 1.96 | Purple spots (Total) [5, 25]: 68 | Purple spot/cotyledon (Avg.) [5, 26]: 1.29 | Purple spots (Total) [5, 26]: 45 | Purple spot/cotyledon (Avg.) [5, 27]: 1.44 | Purple spots (Total) [5, 27]: 50 | Purple spot/cotyledon (Avg.) [5, 28]: 2.60 | Purple spots (Total) [5, 28]: 91 | Purple spot/cotyledon (Avg.) [5, 29]: 2.91 | Purple spots (Total) [5, 29]: 102 | Purple spot/cotyledon (Avg.) [5, 30]: 2.85 | Purple spots (Total) [5, 30]: 100 | increase of HDR efficiency ([5]; compared to the comparative control group): 4 times | HDR frequency, dependence on treatment ([5]; cultivation period 0, 1, 2 or 3 days, 0, 1, 10 μM, pTC217): HDR frequency increases in accordance with an increase in the treatment time (period) and concentration | Purple spot/cotyledon (Avg.) [5, 31]: 22.2 | Purple spots (Total) [5, 31]: 1154 | Purple spot/cotyledon (Avg.) [5, 32]: 21.8 | Purple spots (Total) [5, 32]: 1137 | Purple spot/cotyledon (Avg.) [5, 33]: 1 | Purple spots (Total) [5, 33]: 52 | Purple spot/cotyledon (Avg.) [5, 34]: 2.61 | Purple spots (Total) [5, 34]: 136 | increase of HDR [6]: ~5 times
